# Test system: C. albicans SC5314 (ENO1-GFP)
# Test: In vivo competition with C. albicans in Abx-treated SPF mice (co-inoculation, cohousing)
# From the text: FIGS. 3A-3M include fluorescent micrographs, graphs, and a scheme, showing K. weizmannii competition with C. albicans in colonized animals. (3A) A representative picture of a far-red fluorescent reporter Kazachstania strain (K. weizmannii ENO1-Mirf). (3B-C) Recoverable fecal K. weizmannii in colonized wild-type animals (without antibiotics) one and six months after single oral K. weizmannii ENO1-Mirf inoculation. (3D) Flow cytometric analysis of C. albicans SC5314 (ENO1-GFP), K. weizmannii (ENO1-Mirf), and mixed cultures used for oral inoculation (3E). […] Quantification (n=3-5 mice per group, 4 independent experiments) (see (3D). (3H) Schematic non-limiting outline of a co-housing experiment. (3I) Representative flow cytometric feces analysis of colonized mice 4 weeks after initial colonization (before cohousing) and 2 weeks after co-housing. (N=4 per group). (3J) Percentages of respective labelled fungi in feces of C. albicans, K. weizmannii colonized animals, before and after co-housing in Abx presence (except for day 48 and 58); antibiotics withdrawal on day 46 of cohousing, n=4 per group, representative of 2 independent experiments. (3K) Flow cytometric analysis of feces of germfree animals 1 week after oral inoculation of single fungi cultures or mixed C. albicans SC5314 (ENO1-GFP)/K. weizmannii (ENO1-Mirf) culture. […]
substance,measurement,setting,value
Kazachstania weizmannii [K. weizmannii],C. albicans colonization after co-inoculation,"Abx-treated mice, 1:1 mixture of K. weizmannii and C. albicans",Candida colonization was prevented
same,displacement of established commensal C. albicans,mice stably colonized with C. albicans (on Abx) cohoused with K. weizmannii-harboring mice,progressive rapid ousting of C. albicans
